Reference: patent publication US7253295B2, “Chloride channel opener” (Sucampo AG, priority 2001, dated 2007)

How the values were obtained:
Type in all cases: cell-based, human
[1] = tested on: T84 cells; experiment: Short-circuit current in T84 cells (Test Example 5); conditions: 50 nM
Description: T84 cells, a human intestinal cell line, derived form confluent monolayers with tight junctions were used. Said cell line has been widely used in studies of Cl^− transport using short-circuit current (Isc). These cells contain both CFTR and ClC-2.
T84 human intestinal epithelial cells were grown to confluence at pH 7.4 in 162-cm^2 flasks (Corning Costar, Mass.) with a 1:1 mixture of Dulbecco's modified Eagle's medium and Ham's F-12 nutrient mixture supplemented with 6% fetal bovine serum (FBS), 15 mM HEPES, 14.3 mM NaHCO^3, and antibiotics/antimycotic. Flasks were passaged weekly and fed every 3 days. Cell monolayers for experiments were grown to confluence on collagen-coated permeable support (Biocoat). Monolayers were fed every 3 days and used after stable transepithelia resistance was achieved, c.a. 7-14 days post-plating.
According to the same manner as described in Example 2, Short-circuit current measurements in T84 cells were carried out. Changes in short-circuit current (ΔIsc) were normalized to filter area (0.3 cm^2) and reported as ΔIsc/cm^2.
Compound 1 was used at a final concentration of 50 nM.

[2] = tested on: AS-HBE cells; experiment: Short-circuit current in AS-HBE cells (Test Example 3); conditions: 250 nM
Description: AS-HBE is a human bronchial epithelial (HBE) cell line expressing the first 131 nucleotides of CFTR in the antisense direction (antisense CFTR 16HBE14o- cells, HBE-AS; also called AS-HBE). As a result, AS-HBE cells lack CFTR transcripts and lack functional CFTR. However, AS-HBE cells do express functional ClC-2 in a manner identical to the parental cell line, 16HBE14o- cells, from which they were derived. AS-HBE cells were maintained at 37° C. in 5%/95% CO2/O2 in Minimal Essential Medium (MEM; GIBCO/Invitrogen, Carlsbad, Calif.) supplemented with Earl's salt, L-glutamine (GIBCO/Invitrogen), 10% heat-inactivated fetal bovine serum, 100 units/ml penicillin, 100 μg/ml streptomycin sulfate and 400 μg/ml G-418 (GIBCO/Invitrogen). The cells were grown in air-liquid interface on Biocoat inserts (Fisher Scientific, Chicago, Ill.), coated with human plasma fibronectine (GIBCO/Invitrogen) and vitrogen (Cohesion Technologies, Palo Alto, Calif.).
According to the same manner as described in Example 2, Short-circuit current measurements in the AS-HBE cells were carried out. Changes in short-circuit current (ΔIsc) were normalized to the filter area (0.3 cm^2) and reported as ΔIsc/cm^2.
Test compounds were used at a final concentration of 250 nM.

[3] = tested on: non-transfected HEK cells; experiment: Whole cell patch clamp, non-transfected HEK cells (Test Example 1); conditions: for Effect on Cl currents in non-transfected cells (in words): 1 μM; for Cl channel activity: 1 μM in 1% DMSO, non-transfected HEK cells
Source text: Whole cell patch clamp method was used to assess the effect of compound 1 (13,14-dihydro-15-keto-16,16-difluoro-PGE1) and compound 2 (13,14-dihydro-15-keto-16,16-difluoro-18 (S)-methyl-PGE1) on recombinant hClC-2 chloride channel. In this example, effects of the respective compounds on Human Epithelial Kidney (HEK) cells transfected with human ClC-2 (hClC-2) were examined, and the results were compared with those on non-transfected HEK cells.
ClC-2 transfected human epithelial kidney (HEK) cells were prepared and used. HEK-293 cells obtained from American Type Culture Collection (ATCC; Manassas, Va.) were transfected with His- and T7-tagged human ClC-2 cDNA in the mammalian expression vector pcDNA3.1 (GIBCO/Invitrogen) using Lipofectamine (GIBCO/Invitrogen) for 5 h at 37° C. in serum-free medium. Cells were then resuspended in the serum-containing medium and cultured in the presence of 300 μg/ml G-418 (GIBCO/Invitrogen). The surviving cells were then expanded, tested to confirm expression of Cl- current and ClC-2 mRNA, and the cells expressing ClC-2 mRNA were frozen to store. Upon studies, the stored cells were thawed and maintained at 37° C. in 5%/95% CO2/O2 in MEM (GIBCO/Invitrogen) supplemented with 5% inactivated horse serum, 0.1 mM nonessential amino acids, 2 mM L-glutamine, 1 mM sodium pyruvate, 100 units/ml penicillin, and 100 μg/ml streptomycin sulfate.
In the whole cell patch clamp measurements, currents were elicited by voltage clamp pulses (1500 ms duration) between +40 mV and −140 mV, in 20 mV increments, from the beginning holding potential of −30 mV. Currents were measured 50-100 ms after start of the pulse. The external solution was normal Tyrode solution containing 135 mM NaCl, 1.8 mM CaCl2, 1 mM MgCl2, 5.4 mM KCl, 10 mM glucose, and 10 mM HEPES (pH 7.35). The pipette solution was 130 mM CsCl, 1 mM MgCl2, 5 mM EGTA, and 10 mM HEPES (pH 7.35); also present in the pipette was 1 mM ATP—Mg^2+ (pH 7.4).
Pipettes were prepared from borosilicate glass and pulled by a two stage Narashige puller to give 1-1.5 MΩ resistance. Data were acquired with Axopatch CV-4 headstage with Digidata 1200 digitizer and Axopatch 1D amplifier. Data were analyzed using pClamp 6.04 (Axon Instruments, Foster City, Calif.), Lotus 123 (IBM) and Origin (Microcal) software.
Compound 1 and compound 2 were used at a final concentration of 1 μM in 1% DMSO.

Row | Structure (SMILES) | Effect on Cl− transport in T84 cells (in words) [1] | Changes in short-circuit currents (Δlsc) ([1]; T84 cells) [μA/cm^2] | Changes in short-circuit currents (Δlsc) [2] [μA/cm^2] | Effect on Cl currents in non-transfected cells (in words) [3] | Cl channel activity [3] [nS/pF]
1 | CCCCC(F)(F)[C@@]1(O)CC[C@H]2[C@@H](CC(=O)[C@@H]2CCCCCCC(=O)O)O1 [Compound 1, (−)-7-[(2R,4aR,5R,7aR)-2-(1,1-difluoropentyl)-2-hydroxy-6-oxoperhydrocyclopenta[b]pyran-5-yl]heptanoic acid] | activated Cl^− transport | 56.5 | 4.3 | did not increase | 0.035 ± 0.014
2 | CC[C@H](C)CC(F)(F)C(=O)CC[C@H]1[C@H](O)CC(=O)[C@@H]1CCCCCCC(=O)O [Compound 2, 13,14-dihydro-15-keto-16,16-difluoro-18(S)-Methyl-PGE1] |  |  | 9.0 | did not increase | 0.036 ± 0.010
